Laboratory results as given in the supplement of paper PMC8882468.
Where “and” joins values, the source holds several entries; their conditions need not be identical. Identical values can stand only once.

Legend:
Experiment in all cases: CTG-3D luminescence at 96 h relative to day-0 seeding control (ratio to day 0); higher = more growth / less cytotoxicity; PDxO 3D drug screen (set 2), 96 h, CTG-3D normalised to day-0 seeding control.
HCI-001 = system: HCI-001 (organoid from a triple-negative breast cancer xenograft)
HCI-008 = system: HCI-008 (organoid from a HER2-enriched breast cancer xenograft)
HCI-012 = system: HCI-012 (organoid from a breast cancer xenograft)
MDA-MB-231 = system: MDA-MB-231

CS(=O)(=O)CCNCc1ccc(-c2ccc3ncnc(Nc4ccc(OCc5cccc(F)c5)c(Cl)c4)c3c2)o1 [lapatinib]
CTG-3D luminescence at 96 h
Settings	12.5 pM	0.00025 µM	0.005 µM	0.1 µM	1 µM	10 µM	100 µM	625 fM
HCI-001, days in culture: 365	2.34	2.26	2.24	2.56	1.9	1.3	0.109	1.46
HCI-001, days in culture: 397	1.64	2.11	2.14	1.37	1.64	1.63	0.127	1.29
HCI-001, days in culture: 401	1.46	1.83	1.73	1.59	1.25	1.44	0.0402	1.52
HCI-008, days in culture: 325	1.68	1.81	1.73	3.2	2.32	0.898	0.0242	1.5
HCI-008, days in culture: 340	1.22	2.1	1.96	1.35	2.47	–	0.0374	1.39
HCI-008, days in culture: 354	1.62	1.04	2.27	1.42	1.52	0.935	0.00653	1.13
HCI-008, days in culture: 382	1.61	1.47	1.81	1.52	1.25	0.425	0.00105	1.22
HCI-012, days in culture: 214	2.69	3.04	1.24	2.07	1.18	0.474	0.0116	2.99
HCI-012, days in culture: 243	2.16	2.36	2.03	2.3	1.73	1.17	0.00575	2.33
HCI-012, days in culture: 256	1.96	2.5	2.14	2.69	1.63	1.22	0.0102	2.35
HCI-012, days in culture: 284	1.64	2.45	1.64	2.11	1.41	0.504	-0.00107	3.12

MDA-MB-231
Settings	CTG-3D luminescence at 96 h
12.5 pM	5.64 and 5.22
0.00025 µM	5.66 and 5.01
0.005 µM	5.76 and 5.34
0.1 µM	5.51 and 5.1
1 µM	5.57 and 4.9
100 µM	0.00446 and 0.0132
625 fM	5.54 and 5.06

O=C(c1cc(Cc2n[nH]c(=O)c3ccccc23)ccc1F)N1CCN(C(=O)C2CC2)CC1 [olaparib]
CTG-3D luminescence at 96 h
Settings	12.5 pM	0.00025 µM	0.005 µM	0.1 µM	1 µM	10 µM	100 µM	625 fM
HCI-001, days in culture: 365	2.29	1.96	2.13	2.28	2.05	2.04	1.96	1.74
HCI-001, days in culture: 397	1.71	2.02	2	1.8	2.31	2.16	1.24	1.26
HCI-001, days in culture: 401	1.69	1.42	1.54	1.68	1.23	1.73	1.26	1.62
HCI-008, days in culture: 325	1.39	1.88	1.46	3.33	2.71	1.99	0.484	1.65
HCI-008, days in culture: 340	1.45	2.1	1.84	1.46	1.67	–	0.958	1.34
HCI-008, days in culture: 354	1.36	1	1.35	1.2	1.22	1.33	0.836	1.44
HCI-008, days in culture: 382	1.49	1.46	1.23	2	0.89	0.955	0.204	1.8
HCI-012, days in culture: 214	2.61	3.14	2.09	1.89	1.68	0.943	0.704	2.64
HCI-012, days in culture: 243	1.73	2.04	1.86	2.25	1.49	1.74	1.2	2.06
HCI-012, days in culture: 256	2.25	1.86	2.13	3.12	2.12	1.26	1.08	2.1
HCI-012, days in culture: 284	1.75	1.95	1.42	2.17	1.42	1.42	0.15	3

MDA-MB-231
Settings	CTG-3D luminescence at 96 h
12.5 pM	5.57 and 5.09
0.00025 µM	5.62 and 5.21
0.005 µM	5.57 and 5.41
0.1 µM	5.38 and 5.09
1 µM	5.15 and 5.11
10 µM	4.31 and 4.38
100 µM	3.27 and 2.33
625 fM	5.41 and 5.09
